According to patent US20230146870A1, “METHOD TO QUANTIFY AFFINITY AND SELECTIVITY OF SMALL MOLECULES FOR PROTEINS IN LIVING CELLS” (Ohio State Innovation Foundation, priority 2021, published 2023):

What was measured:
[1] = target: T1, native (untagged) murine PKCζ (Mus musculus, UniProt Q02956); assay: FPCBA competition with probe 1, native PKCζ in HEK293 cells; format: binding; set-up: expressed in transfected cells; host or cells: HEK293 (ATCC CRL-1573), transient transfection with pIRES-mVenus carrying the PKC gene; details: probe 1 400 nM, BIM1 2 μM, 2 h at 37° C.
T1 sequence (Q02956 1-592): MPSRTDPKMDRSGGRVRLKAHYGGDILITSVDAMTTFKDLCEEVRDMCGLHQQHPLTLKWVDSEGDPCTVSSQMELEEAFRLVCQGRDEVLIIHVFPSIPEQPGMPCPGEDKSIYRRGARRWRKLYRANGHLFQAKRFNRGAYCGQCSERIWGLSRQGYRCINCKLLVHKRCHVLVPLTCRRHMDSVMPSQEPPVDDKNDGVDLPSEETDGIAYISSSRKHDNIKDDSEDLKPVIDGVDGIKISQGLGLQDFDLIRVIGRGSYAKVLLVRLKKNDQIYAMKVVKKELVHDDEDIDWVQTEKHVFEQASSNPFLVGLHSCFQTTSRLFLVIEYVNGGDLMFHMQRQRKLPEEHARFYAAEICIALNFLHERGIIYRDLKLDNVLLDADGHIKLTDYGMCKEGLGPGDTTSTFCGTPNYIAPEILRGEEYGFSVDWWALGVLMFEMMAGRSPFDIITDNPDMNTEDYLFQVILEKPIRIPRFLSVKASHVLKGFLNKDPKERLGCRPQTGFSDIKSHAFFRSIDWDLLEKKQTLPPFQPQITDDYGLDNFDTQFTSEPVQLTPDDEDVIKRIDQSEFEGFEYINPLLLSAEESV

PKCη = PKCη (Homo sapiens, UniProt P24723); details: radiolabeled PDBu at 4° C.; read-out: Biochemical Ki, PKCη; cited from earlier work
Sequence of PKCη (P24723 whole entry): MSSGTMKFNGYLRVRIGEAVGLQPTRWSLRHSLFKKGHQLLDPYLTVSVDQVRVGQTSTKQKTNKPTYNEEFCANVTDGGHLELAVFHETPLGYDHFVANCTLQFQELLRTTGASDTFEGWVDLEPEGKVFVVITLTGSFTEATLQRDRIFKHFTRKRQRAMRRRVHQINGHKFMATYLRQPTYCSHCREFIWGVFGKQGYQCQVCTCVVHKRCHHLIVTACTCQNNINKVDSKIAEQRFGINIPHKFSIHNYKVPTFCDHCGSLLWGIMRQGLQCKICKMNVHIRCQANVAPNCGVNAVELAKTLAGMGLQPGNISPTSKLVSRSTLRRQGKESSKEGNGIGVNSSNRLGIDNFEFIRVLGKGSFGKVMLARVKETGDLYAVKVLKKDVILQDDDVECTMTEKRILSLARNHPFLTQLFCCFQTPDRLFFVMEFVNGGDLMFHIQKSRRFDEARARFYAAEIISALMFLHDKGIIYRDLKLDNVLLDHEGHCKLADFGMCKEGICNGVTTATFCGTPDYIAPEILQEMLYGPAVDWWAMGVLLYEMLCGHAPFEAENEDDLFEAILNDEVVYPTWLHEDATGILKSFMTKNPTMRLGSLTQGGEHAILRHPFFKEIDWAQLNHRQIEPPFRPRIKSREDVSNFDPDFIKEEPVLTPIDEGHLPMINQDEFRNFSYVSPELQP

PKCζ = PKCζ (Homo sapiens, UniProt Q05513); details: radiolabeled PDBu at 4° C.; cited from earlier work
Sequence of PKCζ (Q05513 whole entry): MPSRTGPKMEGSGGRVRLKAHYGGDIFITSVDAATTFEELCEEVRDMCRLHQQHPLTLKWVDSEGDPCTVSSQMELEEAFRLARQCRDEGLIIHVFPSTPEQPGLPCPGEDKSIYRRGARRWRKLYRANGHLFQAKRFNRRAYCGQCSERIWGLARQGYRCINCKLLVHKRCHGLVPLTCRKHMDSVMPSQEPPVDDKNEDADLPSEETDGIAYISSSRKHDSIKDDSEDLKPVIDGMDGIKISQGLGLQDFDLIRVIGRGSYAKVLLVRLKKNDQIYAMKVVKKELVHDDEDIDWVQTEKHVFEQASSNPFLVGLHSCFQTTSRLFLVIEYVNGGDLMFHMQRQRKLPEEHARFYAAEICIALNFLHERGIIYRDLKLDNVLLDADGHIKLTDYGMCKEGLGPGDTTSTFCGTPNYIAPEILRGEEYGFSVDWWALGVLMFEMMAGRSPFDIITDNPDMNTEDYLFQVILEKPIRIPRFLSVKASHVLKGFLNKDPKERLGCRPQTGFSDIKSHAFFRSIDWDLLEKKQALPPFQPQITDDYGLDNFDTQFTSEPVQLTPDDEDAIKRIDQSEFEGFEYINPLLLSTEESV

PKCα = PKCα (Homo sapiens, UniProt P17252); details: radiolabeled PDBu at 4° C.; read-out: Biochemical Ki, PKCα; cited from earlier work
[2] = target: T2, native (untagged) murine PKCδ (Mus musculus, UniProt P28867); assay: FPCBA competition with probe 1, native PKCδ in HEK293 cells; format: binding; details: read-out: Cellular Ki for native PKCδ (95% confidence interval); probe 1 400 nM, BIM1 2 μM, 2 h at 37° C.
T2 construct: For coexpression of full-length unmodified PKC proteins with mVenus as an independent marker; expressed in transfected cells; host or cells: HEK293 (transient, pIRES-mVenus)
T2 sequence (P28867 whole entry): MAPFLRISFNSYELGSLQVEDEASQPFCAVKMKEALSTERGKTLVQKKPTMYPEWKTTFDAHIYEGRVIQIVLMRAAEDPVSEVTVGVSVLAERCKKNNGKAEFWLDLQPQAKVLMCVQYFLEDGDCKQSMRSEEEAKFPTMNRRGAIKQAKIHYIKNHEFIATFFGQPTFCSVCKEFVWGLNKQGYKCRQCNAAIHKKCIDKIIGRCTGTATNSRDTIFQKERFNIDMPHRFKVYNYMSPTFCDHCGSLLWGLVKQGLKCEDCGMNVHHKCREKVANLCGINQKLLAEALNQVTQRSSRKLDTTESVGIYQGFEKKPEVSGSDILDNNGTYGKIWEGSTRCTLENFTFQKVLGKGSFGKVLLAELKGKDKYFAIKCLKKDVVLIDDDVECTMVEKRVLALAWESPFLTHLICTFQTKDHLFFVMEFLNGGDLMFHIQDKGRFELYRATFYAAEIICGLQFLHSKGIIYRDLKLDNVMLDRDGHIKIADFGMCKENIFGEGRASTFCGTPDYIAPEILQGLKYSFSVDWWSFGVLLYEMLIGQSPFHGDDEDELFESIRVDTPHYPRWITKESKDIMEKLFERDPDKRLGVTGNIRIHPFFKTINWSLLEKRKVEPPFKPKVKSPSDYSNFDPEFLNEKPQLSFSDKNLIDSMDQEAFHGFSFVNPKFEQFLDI

[3] = target: native (untagged) murine PKCα (Mus musculus, UniProt P20444); assay: FPCBA saturation binding of probe 1, native PKCα (IRES-mVenus) in HEK293 cells
[4] = target: native (untagged) murine PKCγ (Mus musculus, UniProt P63318); assay: FPCBA saturation binding of probe 1, native PKCγ (IRES-mVenus) in HEK293 cells
murine PKCγ-mVenus = murine PKCγ-mVenus (Mus musculus, UniProt P63318); assay: FPCBA saturation binding of probe 1, HEK293 cells expressing PKCγ-mVenus (Example 3)
[5] = tested on: HEK293 cells expressing PKCβI-mVenus; assay: Kinetics of uptake of probes in HEK293 cells transiently transfected with PKCβI-mVenus; format: cell-based; details: probe 1 μM, room temperature, BIM1 2 μM, 4% FBS
Experimental: Cells were treated with probes and analyzed by flow cytometry. […] [BIM1]=2 μM. [FBS]=4%.
To investigate the potential for quantitative analysis of binding to PKCs expressed in cells, we evaluated whether 1-3 could readily achieve equilibrium, which is necessary for measurements of cellular equilibrium dissociation constants (Kd).
The cells were re-suspended in fresh reduced serum media lacking antibiotics (4% FBS) at a cell density of ˜500,000 cells per mL and were added to a 96-well plate (100 μL per well). […] Fluorescent probes were prepared as absorbance-normalized 1 mM DMSO stock solutions and diluted into reduced serum DMEM media lacking antibiotics (4% FBS) to achieve a final concentration of the probe of 1 μM ([…]). [BIM1]=2 μM. After addition of probes, cells were analyzed at room temperature every 5 min as singletons. Living cells with the greatest green fluorescence from expression of mVenus (top 20%, transfected) and the lowest green fluorescence (bottom 20%, non-transfected) were gated to obtain median PB450 values of uptake of the fluorescent probes. For the slower kinetics of uptake of probe 3, cells were analyzed every 20 min in triplicate. These curves were fitted with a one-phase association model (GraphPad Prism 9) to determine t1/2 values.

murine PKCζ-mVenus = murine PKCζ-mVenus (Mus musculus, UniProt Q02956); assay: FPCBA saturation binding of probe 1, HEK293 cells expressing PKCζ-mVenus (Example 3); details: BIM1 2 μM, 2 h at 37° C., 4% FBS
murine PKCα-mVenus = murine PKCα-mVenus (Mus musculus, UniProt P20444); assay: FPCBA saturation binding of probe 1, HEK293 cells expressing PKCα-mVenus (Example 3)

| Compound | Cellular Ki for native PKCζ [1] | Ki (PKCη) [nM] | Biochemical Ki, PKCζ (PKCζ) | Ki (PKCα) [nM] | Ki [2] [nM] | Kd [3] [nM] | Kd [4] [nM] | Kd (murine PKCγ-mVenus) [nM] | half-time (t1/2) of cellular uptake in transfected cells [5] [min] | Cellular Kd for probe, PKCζ-mVenus (murine PKCζ-mVenus) | Kd (murine PKCα-mVenus) [nM] |
| --- | --- | --- | --- | --- | --- | --- | --- | --- | --- | --- | --- |
| CCC/C=C/C=C/C(=O)O[C@H]1/C(=C/C(=O)OC)C[C@H]2C[C@H]([C@@H](C)O)OC(=O)C[C@H](O)C[C@@H]3C[C@H](OC(C)=O)C(C)(C)[C@](O)(C[C@@H]4C/C(=C/C(=O)OC)C[C@H](/C=C/C(C)(C)[C@]1(O)O2)O4)O3 [bryostatin 1] | No binding | 2.2 | No binding | 0.81 | 20 |  |  |  |  |  |  |
| CCCCCCN(CCCCCCCCCCCCNC(=O)c1cc2cc(F)c(O)c(F)c2oc1=O)C(=O)O[C@@]12[C@H](O)[C@@H](C)[C@@]3(O)[C@@H](C=C(CO)C[C@]4(O)C(=O)C(C)=C[C@@H]34)[C@@H]1C2(C)C [probe 1, (1aR,1bS,4aR,7aS,7bS,8R,9R,9aS)-4a,7b,9-trihydroxy-3-(hydroxymethyl)-1,1,6,8-tetramethyl-5-oxo-1,1a,1b,4,4a,5,7a,7b,8,9-decahydro-9aH-cyclopropa[3,4]benzo[1,2-e]azulen-9a-yl (12-(6,8-difluoro-7-hydroxy-2-oxo-2H-chromene-3-carboxamido)dodecyl)(hexyl)carbamate] |  |  |  |  |  | 63 | 211 ± 92 | 391 ± 142 | 4 | No binding | 314 ± 37 |
